# According to PubChem BioAssay (NCI):
#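 Compound exposure: 48 hours, 5 concentrations, 96-well plates. At the GI50, growth is halved. TGI: concentration producing complete growth inhibition.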
# Assays:
# Assay in all cases: growth of human tumour cells (NCI), 48 h
# DLD-1 colon = tested on: DLD-1 colon
# SNB-78 CNS = tested on: SNB-78 CNS
# EKVX NSCLC = tested on: EKVX NSCLC
# KM20L2 colon = tested on: KM20L2 colon
# CAKI-1 renal = tested on: CAKI-1 renal
# A498 renal = tested on: A498 renal
# SF-295 CNS = tested on: SF-295 CNS
# RXF 393 renal = tested on: RXF 393 renal
# M19-MEL melanoma = tested on: M19-MEL melanoma
# SF-539 CNS = tested on: SF-539 CNS
# NCI/ADR-RES ovarian = tested on: NCI/ADR-RES ovarian
# LOX IMVI melanoma = tested on: LOX IMVI melanoma
# HCT-15 colon = tested on: HCT-15 colon
SMILES,TGI (DLD-1 colon),TGI (SNB-78 CNS),TGI (EKVX NSCLC),TGI (KM20L2 colon),TGI (CAKI-1 renal),TGI (A498 renal),TGI (SF-295 CNS),TGI (RXF 393 renal),TGI (M19-MEL melanoma),GI50 (EKVX NSCLC),GI50 (SF-539 CNS),TGI (SF-539 CNS),GI50 (NCI/ADR-RES ovarian),TGI (NCI/ADR-RES ovarian),GI50 (LOX IMVI melanoma),TGI (LOX IMVI melanoma),GI50 (RXF 393 renal),GI50 (HCT-15 colon),TGI (HCT-15 colon)
Clc1ccc2c(Cl)nc(-c3ccccc3)nc2c1,> 100000 nM,91 µM,91.1 µM,68 µM,97.3 µM,> 100000 nM,90.3 µM,71.2 µM,> 100 µM,,,,,,,,,,
c1ccc(C2=NN[C@H](c3cn(-c4ccccc4)nc3-c3ccccc3)C2)cc1,,,> 100 µM,,,,,9.85 µM,,4 µM,9.11 µM,> 100 µM,3.98 µM,> 100000 nM,3.33 µM,> 100000 nM,2580 nM,> 100 µM,> 100 µM
Cc1n(CC(C)C)c2c([n+]1CC(=O)c1ccc([N+](=O)[O-])cc1)C(=O)c1ccccc1C2=O,797 nM,0.107 µM,,0.113 µM,1.13 µM,2210 nM,1.51 µM,,< 0.0175 µM,,,< 0.0387 µM,,2910 nM,,131 nM,,,15.6 µM
